Measurements from patent US11000033B2, “Ketone or oxime compound, and herbicide” (NISSAN CHEMICAL CORPORATION, priority 2014, dated 2021).

Tests used:
Format in all cases: in vivo
[1] = system: Echinochloa oryzacola Vasing.; experiment: Test Example 2: herbicidal activity, application during weed generation in submerged conditions (symbol A); conditions: Table 23; application herbicide amount 320 g/ha; grade 0-5 by criteria of Test Example 1
How it was run: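 Each pot contained alluvial soil under 4 cm of water with seeds of all three weeds sown together. Following growth at 25° C. to 30° C. to the one- to two-leaf stage, the floodwater received diluted emulsion at a predetermined amount; visual assessment followed at 3 weeks.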

[2] = system: Echinochloa crus-galli var. crus-galli; experiment: Test Example 3: herbicidal effect by foliage application, Wagner pot (symbol H); conditions: application herbicide amount 320 g/ha
How it was run: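 Seeds sown in alluvial soil kept under 0.1–0.5 cm water, greenhouse 25–30 °C; 14 d growth. Leaves treated by small sprayer with water-diluted emulsion at a predetermined rate. Effect graded by set scale, 3 weeks.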

Digitaria ciliaris [3] = experiment: Test Example 4: herbicidal effect by soil treatment (symbol F); conditions: application herbicide amount 320 g/ha
How it was run: (§1)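 Seeds were sown in sterilized diluvial soil, covered with about 1.5 cm of soil, and the soil surface was sprayed with a water-diluted emulsion of the compound at a predetermined rate. Plants grew in a greenhouse at 25° C. to 30° C.; effects were scored visually 3 weeks after application.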

Avena fatua = experiment: Test Example 4: herbicidal effect by soil treatment (symbol I); conditions: application herbicide amount 320 g/ha
How it was run: as §1

Alopecurus myosuroides = experiment: Test Example 4: herbicidal effect by soil treatment (symbol J); conditions: application herbicide amount 320 g/ha
How it was run: as §1

Abutilon theophrasti [4] = experiment: Test Example 4: herbicidal effect by soil treatment (symbol M); conditions: application herbicide amount 320 g/ha
How it was run: as §1

beet [5] = experiment: Test Example 4: effect on crop by soil treatment (symbol f); conditions: application herbicide amount 320 g/ha
How it was run: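 Plants grew in a 25° C. to 30° C. greenhouse after spot-sowing of seeds, including beet, rapeseed, wheat and rice, into sterilized diluvial soil under roughly 1.5 cm of cover soil.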

Digitaria ciliaris [6] = experiment: Test Example 5: herbicidal effect by foliage application, plastic box (symbol F); conditions: 320 g/ha, 3 weeks after application
How it was run: (§2)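 Emulsion formulation, diluted with water to the intended rate, was applied uniformly to leaves by small sprayer. Recipients were 14-day greenhouse-grown seedlings (25° C. to 30° C.). Assessment followed at 3 weeks.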

Apera spica-venti = experiment: Test Example 5: herbicidal effect by foliage application, plastic box (symbol L); conditions: 320 g/ha, 3 weeks after application
How it was run: as §2

Abutilon theophrasti [7] = experiment: Test Example 5: herbicidal effect by foliage application, plastic box (symbol M); conditions: 320 g/ha, 3 weeks after application
How it was run: as §2

Amaranthus retroflexus = experiment: Test Example 5: herbicidal effect by foliage application, plastic box (symbol N); conditions: 320 g/ha, 3 weeks after application
How it was run: as §2

soybean = experiment: Test Example 5: effect on crop by foliage application, plastic box (symbol d); conditions: 320 g/ha, 3 weeks after application
How it was run: (§3)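 A greenhouse held between 25° C. and 30° C. was used to grow plants sown spot-wise, beneath ~1.5 cm of soil, in boxes of sterilized diluvial soil.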

rice plant = experiment: Test Example 5: effect on crop by foliage application, plastic box (symbol b); conditions: 320 g/ha, 3 weeks after application
How it was run: as §3

beet [8] = experiment: Test Example 5: effect on crop by foliage application, plastic box (symbol f); conditions: 320 g/ha, 3 weeks after application
How it was run: as §3

Veronica persica = experiment: Test Example 5: herbicidal effect by foliage application, plastic box (symbol R); conditions: 320 g/ha, 3 weeks after application
How it was run: as §2

Compound | Herbicidal effect grade, A: Echinochloa oryzacola Vasing. [1] | herbicidal effect on H (Echinochloa crus-galli var. crus-galli), grade 0-5 [2] | F (Digitaria ciliaris) herbicidal effect grade (Digitaria ciliaris [3]) | I (Avena fatua) herbicidal effect grade (Avena fatua) | J (Alopecurus myosuroides) herbicidal effect grade (Alopecurus myosuroides) | M (Abutilon theophrasti) herbicidal effect grade (Abutilon theophrasti [4]) | f (beet) effect on crop grade (beet [5]) | F: Digitaria ciliaris, herbicidal effect grade (Digitaria ciliaris [6]) | L: Apera spica-venti, herbicidal effect grade (Apera spica-venti) | M: Abutilon theophrasti, herbicidal effect grade (Abutilon theophrasti [7]) | N: Amaranthus retroflexus, herbicidal effect grade (Amaranthus retroflexus) | d: soybean, effect on crop grade (soybean) | b: directly sowed rice plant, effect on crop grade (rice plant) | f: beet, effect on crop grade (beet [8]) | also measured
CC(CC1CC(O)=C(c2c(C)cc(C)cc2C)C1=O)=NOCC1CC1 (stereo not shown) [1-024] | 5 (Herbicidal ratio of 90% or more (almost completely withered)) | 5 (Herbicidal ratio of 90% or more (almost completely withered)) | 5 (Herbicidal ratio of 90% or more (almost completely withered)) | 4 (Herbicidal ratio of 70% or higher and lower than 90%) | 5 (Herbicidal ratio of 90% or more (almost completely withered)) | 3 (Herbicidal ratio of 40% or higher and lower than 70%) | 0 (Herbicidal ratio of 5% or lower (almost no effect)) | 5 (Herbicidal ratio of 90% or more (almost completely withered)) | 5 (Herbicidal ratio of 90% or more (almost completely withered)) | 1 (Herbicidal ratio of 5% or higher and lower than 20%) | 0 (Herbicidal ratio of 5% or lower (almost no effect)) | 2 (Herbicidal ratio of 20% or higher and lower than 40%) | 5 (Herbicidal ratio of 90% or more (almost completely withered)) | 0 (Herbicidal ratio of 5% or lower (almost no effect)) | 
CC(CC1CC(O)=C(c2c(C)cc(C)cc2C)C1=O)=NOCC(C)O (stereo not shown) [1-027] | 4 (Herbicidal ratio of 70% or higher and lower than 90%) | 5 (Herbicidal ratio of 90% or more (almost completely withered)) | 5 (Herbicidal ratio of 90% or more (almost completely withered)) | 4 (Herbicidal ratio of 70% or higher and lower than 90%) | 5 (Herbicidal ratio of 90% or more (almost completely withered)) | 0 (Herbicidal ratio of 5% or lower (almost no effect)) | 0 (Herbicidal ratio of 5% or lower (almost no effect)) | 5 (Herbicidal ratio of 90% or more (almost completely withered)) | 5 (Herbicidal ratio of 90% or more (almost completely withered)) | 2 (Herbicidal ratio of 20% or higher and lower than 40%) | 0 (Herbicidal ratio of 5% or lower (almost no effect)) | 3 (Herbicidal ratio of 40% or higher and lower than 70%) | 5 (Herbicidal ratio of 90% or more (almost completely withered)) | 0 (Herbicidal ratio of 5% or lower (almost no effect)) | 
CC(CC1CC(O)=C(c2c(C)cc(C)cc2C)C1=O)=NOCC(F)(F)F (stereo not shown) [1-028] | 5 (Herbicidal ratio of 90% or more (almost completely withered)) | 5 (Herbicidal ratio of 90% or more (almost completely withered)) | 5 (Herbicidal ratio of 90% or more (almost completely withered)) | 4 (Herbicidal ratio of 70% or higher and lower than 90%) | 5 (Herbicidal ratio of 90% or more (almost completely withered)) | 3 (Herbicidal ratio of 40% or higher and lower than 70%) | 0 (Herbicidal ratio of 5% or lower (almost no effect)) | 5 (Herbicidal ratio of 90% or more (almost completely withered)) | 5 (Herbicidal ratio of 90% or more (almost completely withered)) | 3 (Herbicidal ratio of 40% or higher and lower than 70%) | 0 (Herbicidal ratio of 5% or lower (almost no effect)) | 2 (Herbicidal ratio of 20% or higher and lower than 40%) | 5 (Herbicidal ratio of 90% or more (almost completely withered)) | 0 (Herbicidal ratio of 5% or lower (almost no effect)) | 
CON=C(C)CC1CC(OCC#C[Si](C)(C)C)=C(c2c(C)cc(C)cc2C)C1=O (stereo not shown) [1-031] | 5 (Herbicidal ratio of 90% or more (almost completely withered)) | 3 (Herbicidal ratio of 40% or higher and lower than 70%) | 0 (Herbicidal ratio of 5% or lower (almost no effect)) | 0 (Herbicidal ratio of 5% or lower (almost no effect)) | 0 (Herbicidal ratio of 5% or lower (almost no effect)) | 0 (Herbicidal ratio of 5% or lower (almost no effect)) | 0 (Herbicidal ratio of 5% or lower (almost no effect)) | 1 (Herbicidal ratio of 5% or higher and lower than 20%) | 0 (Herbicidal ratio of 5% or lower (almost no effect)) | 0 (Herbicidal ratio of 5% or lower (almost no effect)) | 0 (Herbicidal ratio of 5% or lower (almost no effect)) | 0 (Herbicidal ratio of 5% or lower (almost no effect)) | 3 (Herbicidal ratio of 40% or higher and lower than 70%) | 0 (Herbicidal ratio of 5% or lower (almost no effect)) | 
CON=C(C)CC1CC(OC(=O)COc2ccc(F)cc2)=C(c2c(C)cc(C)cc2C)C1=O (stereo not shown) [1-073] | 5 (Herbicidal ratio of 90% or more (almost completely withered)) | 5 (Herbicidal ratio of 90% or more (almost completely withered)) | 5 (Herbicidal ratio of 90% or more (almost completely withered)) | 4 (Herbicidal ratio of 70% or higher and lower than 90%) | 5 (Herbicidal ratio of 90% or more (almost completely withered)) | 5 (Herbicidal ratio of 90% or more (almost completely withered)) |  |  |  |  |  |  |  |  | F: Digitaria ciliaris, herbicidal effect (criteria 0-5) (Digitaria ciliaris [6]): 5 (Herbicidal ratio of 90% or more (almost completely withered)); L: Apera spica-venti, herbicidal effect (criteria 0-5) (Apera spica-venti): 5 (Herbicidal ratio of 90% or more (almost completely withered)); M: Abutilon theophrasti, herbicidal effect (criteria 0-5) (Abutilon theophrasti [7]): 4 (Herbicidal ratio of 70% or higher and lower than 90%); N: Amaranthus retroflexus, herbicidal effect (criteria 0-5) (Amaranthus retroflexus): 2 (Herbicidal ratio of 20% or higher and lower than 40%); R: Veronica persica, herbicidal effect (criteria 0-5) (Veronica persica): 3 (Herbicidal ratio of 40% or higher and lower than 70%); d: soybean, effect on crop (criteria 0-5) (soybean): 3 (Herbicidal ratio of 40% or higher and lower than 70%); b: directly sowed rice plant, effect on crop (criteria 0-5) (rice plant): 5 (Herbicidal ratio of 90% or more (almost completely withered)); f: beet, effect on crop (criteria 0-5) (beet [8]): 1 (Herbicidal ratio of 5% or higher and lower than 20%)
